Source: paper PMC6751662, “Pharmacological and functional similarities of the human neuropeptide Y system in C. elegans challenges phylogenetic views on the FLP/NPR system” (Cell Communication and Signaling : CCS, 2019)
Like-named read-outs stand apart in the source and are kept apart here. Ends that are not written are not given here.

Columns and labels:
NPR-6 = assay: cAMP reporter gene assay, Gi/o (inhibition of forskolin-induced cAMP), NPR-6; assay type: cell-based, C. elegans; details: for cAMP, x-fold of forskolin (mean), NPR-6: 1 µM forskolin set to 1.00; for cAMP, x-fold of forskolin (mean), NPR-6 / Gi (Gs) [x-fold of forskolin], NPR-6, mean: transiently transfected HEK293 cells, mean of at least three independent experiments; for cAMP assay Gi, NPR-6: 4 h, lower = higher Gi/o activity, transfected HEK293, CRE-luciferase, mean of >=3 independent experiments; for Gi (Gs) [x-fold of forskolin], NPR-6, mean: inhibition of cAMP production induced by 1 µM forskolin (set to 1.00)
Experimental: (§1) Activation of Gs and Gi/o was assessed with a cAMP reporter gene assay. HEK293 cells grown to 70–80% confluency in 6-well plates were transiently co-transfected with vectors encoding the receptor and the cAMP reporter gene plasmid pGL4.29 [luc2P/CRE/Hygro] (Promega; 4 μg total, 1:1 ratio) using Metafectene Pro (3 μl/μg DNA; Biontex) following the manufacturer’s instructions. 16 h post transfection, the cells were seeded into white 384-well plates at a density of 20,000 cells/well. On the next day, the medium was removed and the cells were stimulated with 20 μl of peptide solution (or forskolin as positive control) in serum-free DMEM for 4 h. For measuring Gi/o activity, the peptide solutions additionally contained 1 μM forskolin to elevate cellular cAMP levels. After incubation, the luciferase substrate OneGlo in lysis buffer (Promega) was added and the luminescence was measured in a microplate reader Tecan Spark (Tecan). Data were analyzed with GraphPad Prism 5.03 and are shown as fold of basal or fold of forskolin in case of Gαi/o activity.
(§2) For in vitro activation, data is presented as mean ± SEM of at least three independent experiments conducted in technical triplicate. […] For the C. elegans NPRs, we considered the strongest response elicited by any of the peptides downstream of a particular receptor as the receptor’s maximal signal. This may or may not be the biological maximum that can be reached by the ‘true’ endogenous agonist. For the human receptors, the response to the established endogenous agonist reflected the maximal signal.

Y2R = biological target: T1, Y2R (Homo sapiens, UniProt P49146); assay: IP accumulation assay, chimeric GαΔ6qi4myr, Y2R; assay type: cell-based; details: chimeric GαΔ6qi4myr co-transfected, transiently transfected HEK293 cells, mean of at least three independent experiments
T1 construct: expressed in transfected cells; host or cells: HEK293, transient
T1 sequence (P49146 1-381): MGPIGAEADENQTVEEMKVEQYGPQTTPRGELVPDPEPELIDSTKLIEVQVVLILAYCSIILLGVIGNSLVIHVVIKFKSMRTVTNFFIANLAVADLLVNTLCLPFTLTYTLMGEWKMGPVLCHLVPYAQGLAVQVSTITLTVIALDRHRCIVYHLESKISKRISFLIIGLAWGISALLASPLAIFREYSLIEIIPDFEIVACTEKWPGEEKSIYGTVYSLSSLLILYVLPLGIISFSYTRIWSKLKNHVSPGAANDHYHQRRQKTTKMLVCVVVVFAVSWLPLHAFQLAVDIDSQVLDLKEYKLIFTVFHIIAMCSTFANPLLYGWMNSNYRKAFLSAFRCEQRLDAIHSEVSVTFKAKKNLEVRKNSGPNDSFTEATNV
Experimental: (§3) For measuring IP accumulation, HEK293 cells grown to 70–80% confluency in 6-well plates were transiently co-transfected using Metafectene Pro (2.5 μl/μg DNA; Biontex) with plasmids containing receptor and/or mock (empty pcDNA3.1) (for endogenous Gq-coupling) using 4 μg total DNA in a ratio of 3:1 following the manufacturer’s instructions. For testing Gα16- and GαΔ6qi4myr-coupling, plasmids encoding the corresponding Gα protein were co-transfected instead of mock. Gα16 is naturally promiscuous and stimulates the phospholipase C (PLC) pathway leading to IP production, while the exchange of the C-terminal four amino acids of Gαq for the corresponding residues of Gαi1 in the chimeric GαΔ6qi4myr confers the ability to couple to Gi/o protein-preferring receptors but still stimulate PLC, thus specifically redirecting downstream cellular signaling. 16 h post transfection, the cells were seeded into white 384-well plates at a density of 20,000 cells/well. Media was removed 24 h later and the cells were incubated with the indicated concentration of peptides for 1 h in HBSS + 20 mM LiCl. IP accumulation was measured with the HTRF-based IP-One Gq kit (Cisbio) on a microplate reader (Tecan Spark).
as §2

Y4R = biological target: T2, Y4R (Homo sapiens, UniProt P50391); assay: IP accumulation assay, chimeric GαΔ6qi4myr, Y4R; assay type: cell-based; details: chimeric GαΔ6qi4myr co-transfected, transiently transfected HEK293 cells, mean of at least three independent experiments
T2 construct: expressed in transfected cells; host or cells: HEK293, transient
Experimental: as §3, §2

PrRPR = biological target: T3, PrRPR (Homo sapiens, UniProt P49683); assay: IP accumulation assay, endogenous Gαq coupling, PrRPR; assay type: cell-based; details: transiently transfected HEK293 cells, mean of at least three independent experiments
T3 construct: expressed in transfected cells; host or cells: HEK293, transient
T3 sequence (P49683 1-370): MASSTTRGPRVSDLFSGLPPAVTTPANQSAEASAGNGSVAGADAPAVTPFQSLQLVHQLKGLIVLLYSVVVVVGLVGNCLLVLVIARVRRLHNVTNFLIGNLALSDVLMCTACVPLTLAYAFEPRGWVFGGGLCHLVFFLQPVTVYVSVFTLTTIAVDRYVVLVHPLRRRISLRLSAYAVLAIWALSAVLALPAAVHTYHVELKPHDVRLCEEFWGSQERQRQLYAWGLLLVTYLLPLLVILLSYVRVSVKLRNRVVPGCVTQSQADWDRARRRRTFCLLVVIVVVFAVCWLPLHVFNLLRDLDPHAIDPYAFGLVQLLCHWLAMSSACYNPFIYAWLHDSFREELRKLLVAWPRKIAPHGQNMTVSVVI
Experimental: as §3, §2

NPR-1 = biological target: T4, NPR-1 (Caenorhabditis elegans, UniProt Q18534); assay: cAMP reporter gene assay, Gi/o (inhibition of forskolin-induced cAMP), NPR-1; assay type: cell-based, C. elegans; design: host or cells: HEK293; details: for cAMP, x-fold of forskolin (mean), NPR-1 / Gi (Gs) [x-fold of forskolin], NPR-1, mean: inhibition of cAMP production induced by 1 µM forskolin (set to 1.00), transiently transfected HEK293 cells, mean of at least three independent experiments; for cAMP, x-fold of forskolin (mean), NPR-1 / cAMP assay Gi, NPR-1: lower = higher Gi/o activity; for cAMP assay Gi, NPR-1: 4 h, transfected HEK293, CRE-luciferase, mean of >=3 independent experiments; for Emax: HEK293, read-out: Emax ± SEM [%]
T4 sequence (Q18534 1-457): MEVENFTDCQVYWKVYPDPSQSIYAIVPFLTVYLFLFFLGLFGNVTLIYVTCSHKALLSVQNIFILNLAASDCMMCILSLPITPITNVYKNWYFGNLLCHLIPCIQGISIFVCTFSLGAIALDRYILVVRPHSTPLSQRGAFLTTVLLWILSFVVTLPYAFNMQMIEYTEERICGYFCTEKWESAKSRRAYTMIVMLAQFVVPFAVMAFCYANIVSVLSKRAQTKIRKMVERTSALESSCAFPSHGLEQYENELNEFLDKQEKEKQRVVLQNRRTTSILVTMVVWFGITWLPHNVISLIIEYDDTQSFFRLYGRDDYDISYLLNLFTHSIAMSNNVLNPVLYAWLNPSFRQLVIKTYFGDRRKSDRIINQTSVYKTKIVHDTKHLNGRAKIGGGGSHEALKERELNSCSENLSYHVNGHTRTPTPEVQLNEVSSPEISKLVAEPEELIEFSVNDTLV
Experimental: as §1, §2

[1] = 0.1 µM peptide + 1 µM forskolin (set to 1.00)
[2] = 10 µM peptide + 1 µM forskolin (set to 1.00)

T2 sequence (P50391 whole entry): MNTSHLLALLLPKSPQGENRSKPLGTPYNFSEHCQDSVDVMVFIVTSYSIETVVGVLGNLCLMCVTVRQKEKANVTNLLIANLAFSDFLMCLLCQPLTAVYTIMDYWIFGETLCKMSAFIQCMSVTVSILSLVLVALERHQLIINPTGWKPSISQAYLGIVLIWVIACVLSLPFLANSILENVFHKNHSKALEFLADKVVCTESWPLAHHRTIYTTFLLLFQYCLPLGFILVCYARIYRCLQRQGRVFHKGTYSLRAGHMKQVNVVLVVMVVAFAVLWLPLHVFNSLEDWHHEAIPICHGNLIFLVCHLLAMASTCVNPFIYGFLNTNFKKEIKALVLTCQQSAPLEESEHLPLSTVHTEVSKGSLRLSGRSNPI

AGSDPNFLRF-NH2 [FLP-1-2, C. elegans FMRFamide-like peptide, C-terminally amidated, synthesized by SPPS]
cAMP, x-fold of forskolin (mean), NPR-6 (NPR-6; 0.1 µM peptide): 0.94 x-fold of forskolin | cAMP, x-fold of forskolin (mean), NPR-6 (NPR-6; 10 µM peptide): 0.29 x-fold of forskolin | IP accumulation, x-fold of basal (mean), Y2R (Y2R; 0.1 µM peptide): 2.81 x-fold of basal | IP accumulation, x-fold of basal (mean), Y2R (Y2R; 10 µM peptide): 1.41 x-fold of basal | IP accumulation, x-fold of basal (mean), Y4R (Y4R; 0.1 µM peptide): 1.28 x-fold of basal | IP accumulation, x-fold of basal (mean), Y4R (Y4R; 10 µM peptide): 1.45 x-fold of basal | IP accumulation, x-fold of basal (mean), PrRPR# (PrRPR; 0.1 µM peptide): 1.04 x-fold of basal | IP accumulation, x-fold of basal (mean), PrRPR# (PrRPR; 10 µM peptide): 1.27 x-fold of basal | cAMP, x-fold of forskolin (mean), NPR-1 (NPR-1; 0.1 µM peptide): 0.98 x-fold of forskolin | cAMP, x-fold of forskolin (mean), NPR-1 (NPR-1; 10 µM peptide): 0.89 x-fold of forskolin

APKPKFIRF-NH2 [FLP-5-1, C. elegans FMRFamide-like peptide, C-terminally amidated, synthesized by SPPS]
cAMP assay Gi, NPR-6 (NPR-6; [1]): 0.85 x-fold of forskolin | cAMP, x-fold of forskolin (mean), NPR-6 (NPR-6; 0.1 µM peptide): 0.84 x-fold of forskolin | cAMP assay Gi, NPR-6 (NPR-6; [2]): 1.01 x-fold of forskolin | cAMP, x-fold of forskolin (mean), NPR-6 (NPR-6; 10 µM peptide): 1.01 x-fold of forskolin | IP accumulation, x-fold of basal (mean), Y2R (Y2R; 0.1 µM peptide): 0.88 x-fold of basal | IP accumulation, x-fold of basal (mean), Y2R (Y2R; 10 µM peptide): 4.08 x-fold of basal | IP accumulation, x-fold of basal (mean), Y4R (Y4R; 0.1 µM peptide): 1.38 x-fold of basal | IP accumulation, x-fold of basal (mean), Y4R (Y4R; 10 µM peptide): 1.28 x-fold of basal | IP accumulation, x-fold of basal (mean), PrRPR# (PrRPR; 0.1 µM peptide): 1.20 x-fold of basal | IP accumulation, x-fold of basal (mean), PrRPR# (PrRPR; 10 µM peptide): 1.41 x-fold of basal | cAMP assay Gi, NPR-1 (NPR-1; [1]): 0.58 x-fold of forskolin | cAMP, x-fold of forskolin (mean), NPR-1 (NPR-1; 0.1 µM peptide): 0.54 x-fold of forskolin | cAMP assay Gi, NPR-1 (NPR-1; [2]): 0.53 x-fold of forskolin | cAMP, x-fold of forskolin (mean), NPR-1 (NPR-1; 10 µM peptide): 0.50 x-fold of forskolin

APLEGFEDMSGFLRTIDGIQKPRF-NH2 [FLP-33, NPY-like C. elegans FLP with C-terminal RxRF/Ya signature]
cAMP, x-fold of forskolin (mean), NPR-6 (NPR-6; 0.1 µM peptide): 0.86 x-fold of forskolin | cAMP, x-fold of forskolin (mean), NPR-6 (NPR-6; 10 µM peptide): 0.91 x-fold of forskolin | IP accumulation, x-fold of basal (mean), PrRPR# (PrRPR; 0.1 µM peptide): 0.91 x-fold of basal | IP accumulation, x-fold of basal (mean), PrRPR# (PrRPR; 10 µM peptide): 0.88 x-fold of basal | cAMP, x-fold of forskolin (mean), NPR-1 (NPR-1; 0.1 µM peptide): 0.72 x-fold of forskolin | cAMP, x-fold of forskolin (mean), NPR-1 (NPR-1; 10 µM peptide): 0.82 x-fold of forskolin

EASAFGDIIGELKGKGLGGRMRF-NH2 [FLP-27, NPY-like C. elegans FLP with C-terminal RxRF/Ya signature]
cAMP, x-fold of forskolin (mean), NPR-6 (NPR-6; 0.1 µM peptide): 1.02 x-fold of forskolin | cAMP, x-fold of forskolin (mean), NPR-6 (NPR-6; 10 µM peptide): 0.88 x-fold of forskolin | IP accumulation, x-fold of basal (mean), PrRPR# (PrRPR; 0.1 µM peptide): 0.93 x-fold of basal | IP accumulation, x-fold of basal (mean), PrRPR# (PrRPR; 10 µM peptide): 0.91 x-fold of basal | cAMP, x-fold of forskolin (mean), NPR-1 (NPR-1; 0.1 µM peptide): 0.91 x-fold of forskolin | cAMP, x-fold of forskolin (mean), NPR-1 (NPR-1; 10 µM peptide): 0.71 x-fold of forskolin

GLGPRPLAF-NH2 [[R8A]FLP-21, R8A control peptide of FLP-21, penultimate arginine exchanged for an alanine]
Gi (Gs) [x-fold of forskolin], NPR-6, mean (NPR-6; 0.1 µM peptide): 1.00 x-fold of forskolin | Gi (Gs) [x-fold of forskolin], NPR-6, mean (NPR-6; 10 µM peptide): 0.86 x-fold of forskolin | Gi (Gs) [x-fold of forskolin], NPR-1, mean (NPR-1; 0.1 µM peptide): 0.90 x-fold of forskolin | Gi (Gs) [x-fold of forskolin], NPR-1, mean (NPR-1; 10 µM peptide): 0.89 x-fold of forskolin

GLGPRPLRF-NH2 [FLP-21]
EC50 (NPR-1): 0.97 nM | Emax (NPR-1; SEM): -0.97 ± 0.15%

RGPSGPLAF-NH2 [[R8A]FLP-15-2]
Gi (Gs) [x-fold of forskolin], NPR-6, mean (NPR-6; 0.1 µM peptide): 0.92 x-fold of forskolin | Gi (Gs) [x-fold of forskolin], NPR-6, mean (NPR-6; 10 µM peptide): 0.99 x-fold of forskolin | Gi (Gs) [x-fold of forskolin], NPR-1, mean (NPR-1; 0.1 µM peptide): 0.84 x-fold of forskolin | Gi (Gs) [x-fold of forskolin], NPR-1, mean (NPR-1; 10 µM peptide): 0.85 x-fold of forskolin

RGPSGPLRF-NH2 [FLP-15-2]
Emax (NPR-1; SEM): -0.92 ± 0.1% | EC50 (NPR-1; SEM): 25.1 nM

SEVPGVLRF-NH2 [FLP-18-5]
Emax (NPR-1; SEM): -0.53 ± 0.2%
